Where “and” joins values, the source holds several entries; their conditions need not be identical. Equal values may be shown once.
Assays:
ABL1 (T315I) = ABL1 (T315I) (Homo sapiens, UniProt P00519, T315I); assay: Luminescence-based ABL kinase assay (300 μM ATP), ADP-Glo; assay type: biochemical
ABL1 = biological target: T1, ABL1 (Homo sapiens, UniProt P00519); assay: as above; assay type: biochemical
T1 construct: purchased Carna Biosciences
From the text: Compounds were serially diluted in DMSO. […] Luminescence signal positively correlates with kinase activity.

| SMILES | IC50 (ABL1 (T315I)) | IC50 (ABL1) |
| --- | --- | --- |
| COc1ccccc1-c1cc2cc(NC(=O)[C@H]3C[C@H]3CN3CCN(C)CC3)ncc2n1C (relative stereo) [Compound 40, cis-N-(2-(2-methoxyphenyl)-1-methyl-1H-pyrrolo[2,3-c]pyridin-5-yl)-2-((4-methylpiperazin-1-yl)methyl)cyclopropane-1-carboxamide] | 145 nM | 113 nM |
| COc1ccccc1-c1cc2cc(NC(=O)[C@H]3C[C@H]3CN3CCOCC3)ncc2n1C (relative stereo) [Compound 41, cis-N-(2-(2-methoxyphenyl)-1-methyl-1H-pyrrolo[2,3-c]pyridin-5-yl)-2-(morpholinomethyl)cyclopropane-1-carboxamide] | 212 nM | 324 nM |
| COc1ncc(F)c(OC)c1-c1cc2cc(NC(=O)[C@H]3C[C@@H]3CN(C)C)ncc2n1C (single isomer, unassigned) [Compound 131] | 78.3 nM | 78.3 nM |
| COc1ccnc(OC)c1-c1cc2cc(NC(=O)[C@@H]3C[C@H]3CN3CCNCC3)ncc2n1C (single isomer, unassigned) [Compound 139] | 85.9 nM | 48.6 nM |
| COc1ccnc(OC)c1-c1cc2cc(NC(=O)[C@H]3C[C@@H]3CN3CC4CC(C3)N4)ncc2n1C (single isomer, unassigned) [Example 135, Enantiomer 1] | 66.7 nM | 30 nM |
| COc1ccnc(OC)c1-c1cc2cc(NC(=O)[C@@H]3C[C@H]3CN3CC4CC(C3)N4)ncc2n1C (single isomer, unassigned) [Example 135, Enantiomer 2] | 26 nM | 10.6 nM |
| Cn1c(-c2ccccc2OCCO)cc2cc(NC(=O)C3CC3)ncc21 [Compound 4, N-[2-[2-(2-hydroxyethoxy)phenyl]-1-methylpyrrolo[2,3-c]pyridin-5-yl]cyclopropanecarboxamide] | 599 nM | 817 nM |
| Cc1c(-c2cc3cc(NC(=O)C4CC4)ncc3n2C)ccc2c1CCN2 [Compound 13, N-[1-methyl-2-(4-methyl-2,3-dihydro-1H-indol-5-yl)pyrrolo[2,3-c]pyridin-5-yl]cyclopropanecarboxamide] | 300 nM | 567 nM |
| Cc1cc2[nH]ccc2cc1-c1cc2cc(NC(=O)C3CC3)ncc2n1C [Compound 14, N-(1-methyl-2-(6-methyl-1H-indol-5-yl)-1H-pyrrolo[2,3-c]pyridin-5-yl)cyclopropanecarboxamide] | 124 nM | 29.6 nM |
| Cc1c(-c2cc3cc(NC(=O)C4CC4)ncc3n2C)ccc2[nH]ccc12 [Compound 15, N-[1-methyl-2-(4-methyl-1H-indol-5-yl)pyrrolo[2,3-c]pyridin-5-yl]cyclopropanecarboxamide] | 101 nM | 103 nM |
| Cc1cc2[nH]ncc2cc1-c1cc2cc(NC(=O)C3CC3)ncc2n1C [Compound 16, N-(1-methyl-2-(6-methyl-1H-indazol-5-yl)-1H-pyrrolo[2,3-c]pyridin-5-yl)cyclopropanecarboxamide] | 545 nM | 184 nM |
| Cc1cc2[nH]cnc2cc1-c1cc2cc(NC(=O)C3CC3)ncc2n1C [Compound 17, N-[1-methyl-2-(6-methyl-1H-1,3-benzodiazol-5-yl)pyrrolo[2,3-c]pyridin-5-yl]cyclopropanecarboxamide] | 160 nM | 59.7 nM |
| Cc1c(-c2cc3cc(NC(=O)C4CC4)ncc3n2C)ccc2[nH]ncc12 [Compound 18, N-[1-methyl-2-(4-methyl-1H-indazol-5-yl)pyrrolo[2,3-c]pyridin-5-yl]cyclopropanecarboxamide] | 336 nM | 743 nM |
| Cc1c(-c2cc3cc(NC(=O)C4CC4)ncc3n2C)ccc2[nH]cnc12 [Compound 19, N-[1-methyl-2-(4-methyl-1H-1,3-benzodiazol-5-yl)pyrrolo[2,3-c]pyridin-5-yl]cyclopropanecarboxamide] | 68.3 nM | 263 nM |
| Cc1cccnc1-c1cc2cc(NC(=O)C3CC3)ncc2n1C [Compound 20, N-[1-methyl-2-(3-methylpyridin-2-yl)pyrrolo[2,3-c]pyridin-5-yl]cyclopropanecarboxamide] | 999 nM | > 10000 nM |
| [2H]C([2H])([2H])Oc1ncccc1-c1cc2cc(NC(=O)[C@H]3C[C@H]3F)ncc2n1C [Compound 33, (1R,2R)-2-fluoro-N-(2-(2-(methoxy-d3)pyridin-3-yl)-1-methyl-1H-pyrrolo[2,3-c]pyridin-5-yl)cyclopropane-1-carboxamide] | 183 nM | 59.5 nM |
| CCOc1ncccc1-c1cc2cc(NC(=O)[C@H]3C[C@H]3F)ncc2n1C [Compound 37, (1R,2R)-N-[2-(2-ethoxypyridin-3-yl)-1-methylpyrrolo[2,3-c]pyridin-5-yl]-2-fluorocyclopropane-1-carboxamide] | 551 nM | 35.4 nM |

| SMILES | IC50 (ABL1 (T315I)) | IC50 (ABL1) |
| --- | --- | --- |
| COc1cccc(F)c1-c1c(C)c2cc(NC(=O)[C@H]3C[C@H]3F)ncc2n1C [Compound 45, (1R,2R)-2-fluoro-N-[2-(2-fluoro-6-methoxyphenyl)-1,3-dimethylpyrrolo[2,3-c]pyridin-5-yl]cyclopropane-1-carboxamide] | 17.9 nM | 220 nM |
| COc1ncccc1-c1cc2cnc(NC(=O)C3CC3)cc2n1C [Compound 50, N-[2-(2-methoxypyridin-3-yl)-1-methylpyrrolo[3,2-c]pyridin-6-yl]cyclopropanecarboxamide] | 681 nM | 294 nM |
| COc1ccccc1-c1cc2cnc(NC(=O)[C@@H]3C[C@@H]3F)cc2n1C [Compound 51, (1S,2S)-2-fluoro-N-[2-(2-methoxyphenyl)-1-methylpyrrolo[3,2-c]pyridin-6-yl]cyclopropane-1-carboxamide] | 64.1 nM | 88.6 nM |
| COc1cccc(F)c1-c1c(C)c2cnc(NC(=O)[C@H]3C[C@H]3F)cc2n1C [Compound 55, (1R,2R)-2-fluoro-N-[2-(2-fluoro-6-methoxyphenyl)-1,3-dimethylpyrrolo[3,2-c]pyridin-6-yl]cyclopropane-1-carboxamide] | 7.24 nM | 71.3 nM |
| CCn1c(-c2cccnc2OC)cc2cc(NC(=O)[C@@H]3C[C@@H]3F)ncc21 [Compound 63, (1S,2S)-N-(1-ethyl-2-(2-methoxypyridin-3-yl)-1H-pyrrolo[2,3-c]pyridin-5-yl)-2-fluorocyclopropane-1-carboxamide] | 2670 nM and 4510 nM | 1430 nM and 1350 nM |
| COc1ncncc1-c1cc2cc(NC(=O)[C@@H]3C[C@@H]3F)ncc2n1C [Compound 68, (1S,2S)-2-fluoro-N-(2-(4-methoxypyrimidin-5-yl)-1-methyl-1H-pyrrolo[2,3-c]pyridin-5-yl)cyclopropane-1-carboxamide] | 431 nM | 109 nM |
| COc1cc2ncsc2cc1-c1cc2cc(NC(=O)[C@@H]3C[C@@H]3F)ncc2n1C [Compound 69, (1S,2S)-2-fluoro-N-[2-(5-methoxy-1,3-benzothiazol-6-yl)-1-methylpyrrolo[2,3-c]pyridin-5-yl]cyclopropane-1-carboxamide] | 62.9 nM | 20.4 nM |
| COc1cc2nccn2cc1-c1cc2cc(NC(=O)[C@@H]3C[C@@H]3F)ncc2n1C [Compound 71, (1S,2S)-2-fluoro-N-(2-(7-methoxyimidazo[1,2-a]pyridin-6-yl)-1-methyl-1H-pyrrolo[2,3-c]pyridin-5-yl)cyclopropane-1-carboxamide] | 716 nM | 105 nM |
| CCNC(=O)Nc1cc2cc(-c3ccccc3OC)n(C)c2cn1 [Compound 77, 3-ethyl-1-[2-(2-methoxyphenyl)-1-methylpyrrolo[2,3-c]pyridin-5-yl]urea] | 148 nM | 95.9 nM |
| CCNC(=O)Nc1cc2cc(-c3cccnc3OC)n(C)c2cn1 [Compound 78, 3-ethyl-1-[2-(2-methoxypyridin-3-yl)-1-methylpyrrolo[2,3-c]pyridin-5-yl]urea] | 411 nM | 183 nM |
| CCN1CCN(CCNC(=O)Nc2cc3cc(-c4c(OC)ncc(F)c4OC)n(C)c3cn2)CC1 [Compound 84, 1-[2-(4-ethylpiperazin-1-yl)ethyl]-3-[2-(5-fluoro-2,4-dimethoxypyridin-3-yl)-1-methylpyrrolo[2,3-c]pyridin-5-yl]urea] | 164 nM | 44.5 nM |
| COc1ncnc(OC)c1-c1[nH]c2cc(NC(=O)[C@@H]3C[C@@H]3F)ncc2c1C [Compound 91, (1S,2S)-N-(2-(4,6-dimethoxypyrimidin-5-yl)-3-methyl-1H-pyrrolo[3,2-c]pyridin-6-yl)-2-fluorocyclopropane-1-carboxamide] | 399 nM | 388 nM |
| COc1nc(C(F)F)nc(OC)c1-c1cc2cc(NC(=O)[C@@H]3C[C@@H]3F)ncc2n1C [Compound 96, (1S,2S)-N-(2-(2-(difluoromethyl)-4,6-dimethoxypyrimidin-5-yl)-1-methyl-1H-pyrrolo[2,3-c]pyridin-5-yl)-2-fluorocyclopropane-1-carboxamide] | 207 nM | 40.4 nM |
| COc1nc(OC)c(-c2cc3cc(NC(=O)[C@@H]4C[C@@H]4F)ncc3n2C)c(OC)n1 [Compound 102, (1S,2S)-2-fluoro-N-(1-methyl-2-(2,4,6-trimethoxypyrimidin-5-yl)-1H-pyrrolo[2,3-c]pyridin-5-yl)cyclopropane-1-carboxamide] | 412 nM | 123 nM |
| CNc1ncnc(OC)c1-c1cc2cc(NC(=O)[C@@H]3C[C@@H]3F)ncc2n1C [Compound 109, (1S,2S)-2-fluoro-N-(2-(4-methoxy-6-(methylamino)pyrimidin-5-yl)-1-methyl-1H-pyrrolo[2,3-c]pyridin-5-yl)cyclopropane-1-carboxamide] | 203 nM | 60.2 nM |
| COc1ncnc(NC2CC2)c1-c1cc2cc(NC(=O)[C@@H]3C[C@@H]3F)ncc2n1C [Compound 110, (1S,2S)-N-(2-(4-(cyclopropylamino)-6-methoxypyrimidin-5-yl)-1-methyl-1H-pyrrolo[2,3-c]pyridin-5-yl)-2-fluorocyclopropane-1-carboxamide] | 357 nM | 280 nM |

Reference: patent US12240846B2 (Enliven Inc., priority 2020, dated 2025)
